Molecules are shown by their SMILES.

In one series the test system is all microorganisms. Kind of series: Preservative efficacy test (PET), overall compliance with European Pharmacopeia / USP criteria. Type of series: cell-based.
The next series has as its system Staphylococcus aureus. The series is described as follows: Preservative efficacy test (PET; Ph. Eur. / USP), S. aureus. The note with it: 5.5 mg/mL MEDI0382 multi-dose formulation.
Series [1] is described as follows: MEDI0382 solubility studies (buffers, ionic strength, water, organic solvents, aqueous pH). Format: physicochemical. As for the experimental part:
The aqueous pH solubility of MEDI0382 was also assessed.

Series [2] in a line: Container compatibility: syringe stability and adsorption to containers. Type of series: physicochemical. Conditions: 50 mM Phosphate buffer, 1.85% (w/v) propylene glycol, pH 7.4. As for the experimental part:
The chemical stability of MEDI0382 was tested in 50 mM Phosphate buffer, 1.85% (w/v) of propylene glycol, pH 7.4.
This MEDI0382 formulation was stable in BD Plastipak syringes for at least 4 hours at room temperature.
However, an adsorption of the peptide to the containers at low levels of dosing (below 0.1 mg/ml) was identified. This MEDI0382 formulation was ruled out because the low doses of drug likely to be required to achieve a pharmacological (agonistic) effect could not feasibly be delivered in this way.

The procedure of series [3]:
(§1) The solubility and pH stability of the GLP-1/glucagon agonist peptide MEDI0382 (FIG. 1) were studied. In particular, solubility was studied in different types of buffers, different buffer ionic strengths, pure water, and organic solvents. The aqueous pH solubility of MEDI0382 was also assessed. The chemical stability (as measured by reverse phase ultra performance liquid chromatography (RP-UPLC)) and secondary structure (as measured by Fourier transform infrared spectroscopy (FTIR) and UV circular dichoism spectroscopy (CD)) were also assessed at various pHs. Furthermore, the effect of pH on the kinetics of MEDI0382 aggregation were also assessed in a thioflavin T binding (ThT) assay.
The effect of excipients on fiber formation was analyzed by evaluating whether or not amino acids and divalent ions could prevent fiber formation at pH 7.5. […] The fiber formation was evaluated using a Thioflavin T binding assay (ThT) assay.
(§2) The fiber formation was again evaluated using a ThT assay. […] Chemical degradation associated with these excipients was also monitored for one month for samples kept at 5° C. and 40° C. using an RP-UPLC assay. […] Particle formation associated with these excipients was also monitored by visual inspection after shaking stress (800 rpm for 4 hours). […]

How the values of series [4] were obtained: as §1, with “assay. […]” for “assay.”
The six selected formulations were used in a 1-month stability study at refrigerated (2-8° C.) and stressed conditions (37° C.). Samples were assessed at time zero, 2 weeks, and 4 weeks by RP-UPLC, DLS, Visual Inspection, Micro-Flow Imaging (MFI), Size Exclusion Chromatography-Multi-Angle Light Scattering (SEC-MALS). […]
as §2
This is another data set of the same source.

A short description of series [5]: Dynamic Light Scattering (DLS): particle size, Z-average, hydrodynamic diameter. Format: physicochemical. Conditions: 50 mM PB pH 7.5, 1.85% w/v PG, 0.03% v/v PS80; one month. Here is the method: The principles for formulation ranking used in Table 3 were the loss of peptide purity (main area peak/total peak area) at accelerated conditions (purity loss≤3% per 1 week at 40° C., low risk; purity loss>5% week at 40° C.=high risk) and physical stability at 40 or 5° C. (Z-average<10 nm=low risk, >10 nm=medium risk; >100 nm=high risk).
The six selected formulations were used in a 1-month stability study at refrigerated (2-8° C.) and stressed conditions (37° C.). Samples were assessed at time zero, 2 weeks, and 4 weeks by RP-UPLC, DLS, Visual Inspection, Micro-Flow Imaging (MFI), Size Exclusion Chromatography-Multi-Angle Light Scattering (SEC-MALS).
Purity (RP-UPLC), aggregation (DLS), peptide concentration (A280), High order structure (SEC-MALS)(multiangle (laser) light scattering), Sub-visible particles (MFI), Osmolarity, Conformational stability (Circular dichroism (CD) spectroscopy) and pH tests were conducted. The following temperatures were tested: 5° C., 15° C.; 25° C., 40° C. and −80° C. The following time points were tested: 0, 2 weeks, 1, 2, 3, 6, 9, 12, 24 and 36 months.
In another set of experiments, the impact of sorbitol (0-250 mM), propylene glycol (0-2%), and phenol (0-2%) in a pH range 7-8.2 on the physical stability of MEDI0382 was explored. Physical stability was monitored using DLS (DynaPro plate reader, Wyatt) and the ThT assay.

Series [6] in a line: Visual inspection: gel formation, particles, shaking and freeze/thaw stress. Type of series: physicochemical. Here is the method:
Samples were stressed by temperature and freeze/thaw and analyzed for purity, aggregation, visual inspection, and for the presence of sub-visible particles.
In the freeze/thaw studies, the formulation was tested in the presence or absence of polysorbate 80 (0.3% v/v) with either 2 mg/ml or 5 mg/ml protein. Fresh solutions (glass vials, Type I, transparent) were frozen by three freeze/thaw cycles. After the thawing, samples were kept at 5 and 25° C. for up to 3 weeks and analysed by visual inspection. Samples without freezing were run in parallel as control. In a second study, the container closer compatibility was assessed by using Nalgene HDPE (more suitable for toxicological studies). In this case, only formulation at 5 mg/mL was analysed.
In these experiments, formulations with 0.03% polysorbate 80 were compared to formulations without polysorbate 80. The samples were incubated for 7 days at 50° C. […] All of the samples were then incubated for another 12 days.

The nature of series [7]: Secondary structure by FTIR and UV circular dichroism. Format: physicochemical. A general note: Circular dichroism is the unequal absorption of left and right circularly polarised light.

Protocol for Staphylococcus aureus: (§3) In preservative efficacy assays, a short study was performed whereby two microorganisms were used to assess the microbial efficacy of the prepared formulations (Staphylococcus aureus and E. coli). Samples were tested at t=0 (bulk) and t=1 month after storage at 25° C.
Preservative efficacy testing (PET) was also performed on 2 and 5 mg/ml MEDI0382 formulations containing 20 mM sodium phosphate buffer, 220 mM sorbitol, and m-Cresol (at the concentrations indicated in Table 35) at pH.
A total of 20 bulk formulations were prepared and tested in accordance with the European Pharmacopeia Edition 10.0 Section 5.1.3 and the United States Pharmacopeia 42 <51>.
Protocol for all microorganisms: as §3
A multivariate robustness study was carried out to investigate the impact of m-cresol content, sodium phosphate concentration, and m-cresol content on the preservative efficacy of the 5 mg/mL multi-dose formulation. […] A total of 20 bulk formulations were prepared and tested in accordance with the European Pharmacopeia Edition 10.0 Section 5.1.3 and the United States Pharmacopeia 42 <51>.

Regarding `Cc1cccc(O)c1` [meta-cresol], in the series on all microorganisms, the “minimum meta-cresol needed to achieve Ph. Eur. Criteria A” value was ≥ 0.34 % (w/v) and the “minimum meta-cresol needed to consistently achieve Ph. Eur. Criteria B” value was ≥ 0.27 % (w/v). Besides, the “m-cresol concentration at which USP and EP criteria A are consistently met for all microorganisms except Staphylococcus aureus (EP criteria B met)” value with all microorganisms (5.5 mg/mL MEDI0382 multi-dose formulation) was ≥ 0.24 % (w/v). Also, the “m-cresol concentration required for a log reduction consistently greater than 3 at 24 hours” value with Staphylococcus aureus was ≥ 0.28 % (w/v).

Take `Cc1cccc(O)c1` [Hedinger m-Cresol, m-Cresol]: in the series with all microorganisms (highest concentrations tested, S. aureus and E. coli), the “European criteria passed (PET)” value is “passed the more stringent European (“A”) criteria”.

As to `CCCCCCCCCCCCCCCC(=O)N[C@@H](CCC(=O)NCCCC[C@H](NC(=O)[C@H](CC(=O)O)NC(=O)[C@H](CO)NC(=O)[C@@H](NC(=O)[C@H](Cc1ccccc1)NC(=O)[C@@H](NC(=O)CNC(=O)[C@H](CCC(N)=O)NC(=O)[C@H](CO)NC(=O)[C@@H](N)Cc1c[nH]cn1)[C@@H](C)O)[C@@H](C)O)C(=O)N[C@@H](CO)C(=O)N[C@@H](CCC(=O)O)C(=O)N[C@@H](Cc1ccc(O)cc1)C(=O)N[C@@H](CC(C)C)C(=O)N[C@@H](CC(=O)O)C(=O)N[C@@H](CO)C(=O)N[C@@H](CCC(=O)O)C(=O)N[C@@H](CCCNC(=N)N)C(=O)N[C@@H](C)C(=O)N[C@@H](CCCNC(=N)N)C(=O)N[C@@H](CC(=O)O)C(=O)N[C@@H](Cc1ccccc1)C(=O)N[C@H](C(=O)N[C@@H](C)C(=O)N[C@@H](Cc1c[nH]c2ccccc12)C(=O)N[C@@H](CC(C)C)C(=O)N[C@@H](CCC(=O)O)C(=O)N[C@@H](C)C(=O)NCC(=O)NCC(=O)O)C(C)C)C(=O)O` [MEDI0382], the Organic solvent solubility entry in series [1] is on record as “Low”. Moreover, the Physical state entry in [1] is given as “Amorphous powder, hygroscopic, sensitive”. The Preferable buffers solubility result in series [1] was “Sodium phosphate and TRIS”. For the same molecule, in series [1] (buffers of different ionic strengths, read-out: Ranges of ionic strength solubility), the solubility (usually the dissolved amount per volume that the medium holds) was at least 25 mM. Also, the “Aqueous solution pH solubility” value in series [1] (pH 1 to 3 and 6 to 13) is “increases at pH 1 to 3 and 6 to 13”; in series [1] (pH 4.1 to 4.5) it was “Insoluble at pH 4.1 to 4.5, solubility”. In addition, in series [2], the “concentration at which adsorption of the peptide to the containers was identified” value is “below 0.1 mg/ml”. For the same molecule, in series [2] (room temperature), the “time stable in BD Plastipak syringes” value is “at least 4 hours”. Besides, in series [3], the “optimal pH for physical stability” value is on record as over 7.8. In [3] (pH 8), the “pH impact on aggregation kinetics: lag time” value is reported as “kinetics (higher lag time at pH 8 (93 hours),”. In addition, the “pH at which both physical and chemical stability are improved” value in series [4] is on record as at least 8. Besides, the “Z-average values (DLS)” value in series [5] is “increased sharply over the month at all temperatures, except at −80 °C”. Besides, the gel formation result in series [6] (0.03% polysorbate 80, pH 6.9, 7 days at 50° C.) was “turned into a solid gel”; in series [6] (0.03% polysorbate 80, pH 8.3, 7 days at 50° C.), “did not”; in series [6] (without polysorbate 80, pH 6.9, another 12 days) it was “turned into a soft gel”. Moreover, the visual inspection entry in series [6] (50 mM PB pH 7.5, 1.85% w/v PG, 0.03% v/v PS80, 2-month storage) is “gel-like-appearance”. Also, in series [7], the “pH impact on secondary structure” value is “increases α-helix in alkaline conditions (7 to 8)”.

Consider `Oc1ccccc1` [phenol], for which the “phenol concentration needed to achieve the less stringent European (“B”) criteria” value was “at least 0.44 % w/v” in the series with all microorganisms (with 1 mg/mL MEDI0382) and “at least 0.54 % w/v” in the series with all microorganisms (with 2 mg/mL MEDI0382).
